# Source: ChEMBL document CHEMBL5380807, “Imidazo[1,2-a]Pyridine Derivatives as Novel Dual-Target Inhibitors of ABCB1 and ABCG2 for Reversing Multidrug Resistance” (J Med Chem, 2023)
# The source made the active and inactive calls. The rule behind the calls is not given here.
# Tests used:
# HEK293 [1] = experiment: Reversal of ABCG2 mediated multidrug resistance in human HEK293 overexpressing ABCG2 assessed as decrease in survival rate at 1.25 to 5 uM preincubated for 1 hrs followed by adriamycin addition and measured after 72 hrs by SRB assay; type: functional, cell-based; conditions: dose 1.25-5 µM, time 73.0 hrs
# [2] = Cytotoxicity against human K562/A02 cells overexpressing ABCB1 assessed as decrease in cell survival rate incubated for 72 hrs by MTS assay; type: toxicity, cell-based
# K562/A02 [3] = experiment: Antitumor activity against human K562/A02 cells overexpressing ABCB1 xenografted in BALB/c mouse assessed as tumor growth inhibition at 40 mg/kg, iv QD for 14 days in presence of adriamycin; type: functional, organism-based; conditions: time 14.0 day
# K562/A02 [4] = experiment: Reversal of ABCB1 mediated adriamycin resistance in human K562/A02 overexpressing ABCB1 assessed as decrease in survival rate at 1.25 to 5 uM preincubated for 1 hrs followed by adriamycin addition and measured after 72 hrs by MTS assay; type: functional, cell-based; conditions: dose 1.25-5 µM, time 73.0 hrs
# HEK293 [5] = experiment: Reversal of ABCG2 mediated mitoxantrone resistance in human HEK293 assessed as decrease in survival rate at 1.25 to 5 uM preincubated for 1 hrs followed by mitoxantrone addition and measured after 72 hrs by SRB assay; type: functional, cell-based; conditions: dose 1.25-5 µM, time 73.0 hrs
# K562/A02 [6] = experiment: Reversal of ABCB1 mediated multidrug resistance in human K562/A02 cells overexpressing ABCB1 assessed as change in abcb1 mRNA expression level at 2.5 uM incubated for 72 hrs by real time RT-PCR analysis; type: functional, cell-based
# [7] = Half life in Sprague-Dawley rat at 5 mg/kg, iv by LC-MS/MS analysis; type: ADME, organism-based; conditions: in vivo
# [8] = Metabolic stability in rat liver microsomes assessed as intrinsic clearance at 80 ug/ml preincubated for 5 mins followed by NADPH addition and measured upto 120 mins by LC-MS/MS analysis; type: ADME, Microsome; conditions: dose 80 µg/ml, time < 125 min, read-out: CLH
# [9] = Clearance in Sprague-Dawley rat at 5 mg/kg, iv by LC-MS/MS analysis; type: ADME, organism-based; conditions: in vivo
# K562/A02 [10] = experiment: Reversal of ABCB1 mediated multidrug resistance in human K562/A02 cells overexpressing ABCB1 assessed as change in ABCB1 protein expression level at 2.5 uM incubated for 72 hrs by Western blot analysis; type: functional, cell-based
# [11] = Cytotoxicity against human HEK293 cells expressing ABCG2 assessed as reduction in cell viability incubated for 72 hrs by SRB assay; type: toxicity, cell-based
# [12] = Toxicity in BALB/c mouse xenografted with human K562/A02 cells overexpressing ABCB1 assessed as body weight loss at 20 mg/kg, iv QD for 14 days; type: organism-based; conditions: in vivo, 336 h, time 14 day
# [13] = Cytotoxicity against human K562 cells assessed as decrease in cell survival rate incubated for 72 hrs by MTS assay; type: toxicity, cell-based
# HEK293 [14] = experiment: Reversal of ABCG2 mediated multidrug resistance in human HEK293 cells overexpressing ABCG2 assessed as change in abcg2 mRNA expression level at 2.5 uM incubated for 48 hrs by real time RT-PCR analysis; type: functional, cell-based
# K562/A02 [15] = experiment: Reversal of ABCB1 mediated adriamycin resistance in human K562/A02 overexpressing ABCB1 assessed as decrease in survival rate at 5 uM preincubated for 1 hrs followed by adriamycin addition and measured after 72 hrs by MTS assay; type: functional
# [16] = Cytotoxicity against human HEK293 cells assessed as reduction in cell viability incubated for 72 hrs by SRB assay; type: toxicity, cell-based
# [17] = Toxicity in BALB/c mouse xenografted with human K562/A02 cells overexpressing ABCB1 assessed as body weight loss at 10 to 40 mg/kg, iv QD for 14 days in presence of adriamycin; type: organism-based; conditions: in vivo, 336 h, dose 10-40 mg/kg, time 14 day
# [18] = AUC (0 to infinity) in Sprague-Dawley rat at 5 mg/kg, iv by LC-MS/MS analysis; type: ADME, organism-based; parameters: dose 5 mg/kg, route iv; conditions: in vivo
# K562/A02 [19] = experiment: Reversal of ABCB1 mediated multidrug resistance in human K562/A02 cells overexpressing ABCB1 assessed as decrease in survival rate at 1.25 to 5 uM preincubated for 1 hrs followed by paclitaxel addition and measured after 72 hrs by MTS assay; type: functional, cell-based; conditions: dose 1.25-5 µM, time 73.0 hrs
# K562/A02 [20] = experiment: Reversal of ABCB1 mediated multidrug resistance in human K562/A02 cells overexpressing ABCB1 assessed as decrease in survival rate at 1.25 to 5 uM preincubated for 1 hrs followed by vincristine addition and measured after 72 hrs by MTS assay; type: functional, cell-based; conditions: dose 1.25-5 µM, time 73.0 hrs
# [21] = Toxicity in BALB/c mouse xenografted with human K562 cells assessed as body weight loss at 10 to 40 mg/kg, iv QD for 14 days in presence of adriamycin; type: organism-based; conditions: in vivo, 336 h, dose 10-40 mg/kg, time 14 day
# [22] = target: T1, Broad substrate specificity ATP-binding cassette transporter ABCG2 (Homo sapiens, UniProt Q9UNQ0); experiment: Inhibition of ABCG2 (unknown origin) ATPase activity assessed as decrease in luminescence by firefly luciferase reporter assay
# T1 sequence (Q9UNQ0 whole entry): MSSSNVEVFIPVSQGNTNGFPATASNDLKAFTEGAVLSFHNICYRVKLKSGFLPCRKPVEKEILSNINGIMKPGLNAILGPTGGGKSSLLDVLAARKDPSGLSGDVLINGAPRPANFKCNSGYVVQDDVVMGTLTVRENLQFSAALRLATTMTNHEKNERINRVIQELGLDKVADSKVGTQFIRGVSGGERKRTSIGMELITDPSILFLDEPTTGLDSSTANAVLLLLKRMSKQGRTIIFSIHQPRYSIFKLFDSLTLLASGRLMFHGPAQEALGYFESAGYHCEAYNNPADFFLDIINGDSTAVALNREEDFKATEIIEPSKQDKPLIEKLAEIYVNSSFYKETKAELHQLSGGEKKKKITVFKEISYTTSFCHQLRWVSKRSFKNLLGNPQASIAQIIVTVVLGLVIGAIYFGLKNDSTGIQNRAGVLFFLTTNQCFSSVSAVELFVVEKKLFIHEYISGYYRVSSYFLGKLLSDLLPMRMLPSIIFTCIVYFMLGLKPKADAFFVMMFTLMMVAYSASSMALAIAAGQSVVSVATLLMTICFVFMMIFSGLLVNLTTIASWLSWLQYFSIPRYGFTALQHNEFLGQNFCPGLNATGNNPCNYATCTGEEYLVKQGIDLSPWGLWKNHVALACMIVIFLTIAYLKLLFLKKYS
# HEK293 [23] = experiment: Reversal of ABCG2 mediated multidrug resistance in human HEK293 cells overexpressing ABCG2 assessed as change in ABCG2 protein expression level at 2.5 uM incubated for 48 hrs by Western blot analysis; type: functional, cell-based
# [24] = target: ATP-dependent translocase ABCB1 (Homo sapiens, UniProt P08183); experiment: Inhibition of ABCB1 (unknown origin) ATPase activity assessed as decrease in luminescence by firefly luciferase reporter assay
# [25] = AUCt in Sprague-Dawley rat at 5 mg/kg, iv by LC-MS/MS analysis; type: ADME, organism-based; parameters: dose 5 mg/kg, route iv; conditions: in vivo
# [26] = Toxicity in BALB/c mouse xenografted with human K562 cells assessed as body weight loss at 20 mg/kg, iv QD for 14 days; type: organism-based; conditions: in vivo, 336 h, time 14 day
# K562 [27] = experiment: Reversal of ABCB1 mediated adriamycin resistance in human K562 assessed as decrease in survival rate at 1.25 to 5 uM preincubated for 1 hrs followed by adriamycin addition and measured after 72 hrs by MTS assay; type: functional, cell-based; conditions: dose 1.25-5 µM, time 73.0 hrs
# HEK293 [28] = experiment: Reversal of ABCG2 mediated mitoxantrone resistance in human HEK293 overexpressing ABCG2 assessed as decrease in survival rate at 1.25 to 5 uM preincubated for 1 hrs followed by mitoxantrone addition and measured after 72 hrs by SRB assay; type: functional, cell-based; conditions: dose 1.25-5 µM, time 73.0 hrs
# [29] = Metabolic stability in rat liver microsomes assessed as half life at 80 ug/ml preincubated for 5 mins followed by NADPH addition and measured upto 120 mins by LC-MS/MS analysis; type: ADME, Microsome; conditions: dose 80 µg/ml, time < 125 min
# [30] = Stability in rat plasma assessed as parent compound remaining at 80 ug/ml and measured after 300 mins by LC-MS/MS analysis; type: ADME, cell-free; conditions: 5 h, at 80 µg/mL
# [31] = Volume of distribution at steady state in Sprague-Dawley rat at 5 mg/kg, iv by LC-MS/MS analysis; type: ADME, organism-based; conditions: in vivo, read-out: Vdss
# [32] = Toxicity in iv dosed BALB/c mouse xenografted with human K562/A02 cells overexpressing ABCB1 assessed as lethality; type: organism-based; conditions: in vivo
# K562/A02 [33] = experiment: Reversal of ABCB1 mediated multidrug resistance in human K562/A02 cells overexpressing ABCB1 assessed as decrease in survival rate at 1.25 uM preincubated for 1 hrs followed by vincristine addition and measured after 72 hrs by MTS assay; type: functional; conditions: time 73 hrs
# K562 [34] = experiment: Antitumor activity against human K562 cells xenografted in BALB/c mouse assessed as tumor growth inhibition at 40 mg/kg, iv QD for 14 days in presence of adriamycin; type: functional, organism-based; conditions: time 14.0 day
# HEK293 [35] = experiment: Reversal of ABCG2 mediated multidrug resistance in human HEK293 overexpressing ABCG2 assessed as decrease in survival rate at 1.25 to 5 uM preincubated for 1 hrs followed by topotecan addition and measured after 72 hrs by SRB assay; type: functional, cell-based; conditions: dose 1.25-5 µM, time 73.0 hrs
# Sequence of ATP-dependent translocase ABCB1 (P08183 whole entry): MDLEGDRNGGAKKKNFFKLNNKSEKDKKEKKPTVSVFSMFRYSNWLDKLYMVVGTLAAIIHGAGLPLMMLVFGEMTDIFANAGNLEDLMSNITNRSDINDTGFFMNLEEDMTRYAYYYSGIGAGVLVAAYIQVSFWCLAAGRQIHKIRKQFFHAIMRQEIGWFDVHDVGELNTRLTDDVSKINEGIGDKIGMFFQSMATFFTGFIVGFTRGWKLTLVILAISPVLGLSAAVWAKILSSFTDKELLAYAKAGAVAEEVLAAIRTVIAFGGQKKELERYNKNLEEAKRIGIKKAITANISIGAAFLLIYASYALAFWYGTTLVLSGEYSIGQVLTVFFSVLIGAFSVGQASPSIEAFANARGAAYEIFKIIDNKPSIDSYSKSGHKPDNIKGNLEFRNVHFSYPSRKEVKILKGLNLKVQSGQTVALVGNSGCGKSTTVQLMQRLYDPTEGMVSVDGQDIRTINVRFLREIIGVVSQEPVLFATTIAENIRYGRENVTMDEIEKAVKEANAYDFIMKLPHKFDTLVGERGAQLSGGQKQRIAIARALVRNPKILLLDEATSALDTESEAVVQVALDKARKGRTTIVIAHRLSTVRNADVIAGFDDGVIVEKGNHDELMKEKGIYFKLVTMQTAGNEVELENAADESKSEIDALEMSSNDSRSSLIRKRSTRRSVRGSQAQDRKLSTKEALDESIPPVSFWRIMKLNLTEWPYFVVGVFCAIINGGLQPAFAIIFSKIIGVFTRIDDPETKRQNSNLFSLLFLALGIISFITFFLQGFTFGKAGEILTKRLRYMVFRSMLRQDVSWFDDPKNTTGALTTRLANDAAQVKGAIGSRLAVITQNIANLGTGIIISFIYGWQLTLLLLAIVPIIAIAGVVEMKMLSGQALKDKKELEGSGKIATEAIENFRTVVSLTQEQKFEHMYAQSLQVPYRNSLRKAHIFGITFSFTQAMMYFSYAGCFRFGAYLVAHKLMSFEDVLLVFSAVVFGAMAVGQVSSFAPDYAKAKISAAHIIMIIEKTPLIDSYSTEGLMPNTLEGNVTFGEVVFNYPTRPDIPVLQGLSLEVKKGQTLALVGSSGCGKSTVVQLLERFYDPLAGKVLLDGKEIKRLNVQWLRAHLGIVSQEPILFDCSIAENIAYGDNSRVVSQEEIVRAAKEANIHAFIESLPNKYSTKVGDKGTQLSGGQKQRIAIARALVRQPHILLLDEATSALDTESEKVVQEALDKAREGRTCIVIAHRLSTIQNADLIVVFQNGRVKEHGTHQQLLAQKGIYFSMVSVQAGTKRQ
structure (smiles),measurement,setting,value
O=C(CN1CCN(c2ccc(OC(F)(F)F)cc2)CC1)Nc1ccc(-c2nc3ccccn3c2CN2CCN(c3ccccc3)CC2)cc1,Activity,HEK293 [1],Active
same,IC50 at 72 h,[2],> 100 µM
same,Activity,K562/A02 [3],Active
same,Activity,K562/A02 [4],Active
same,Activity,HEK293 [5],inactive
same,Activity,K562/A02 [6],inactive
same,half-life,[7],2.25 h
same,microsomal CLint at 80 ug/ml,[8],2.27 µL/min/mg
same,clearance,[9],130 mL/min/kg
same,Activity,K562/A02 [10],inactive
same,IC50 at 72 h,[11],67.7 µM
same,Activity,[12],Non-Toxic
same,IC50 at 72 h,[13],> 100 µM
same,Activity,HEK293 [14],inactive
same,Activity,K562/A02 [15],<30%
same,IC50 at 72 h,[16],53.4 µM
same,Activity,[17],Non-Toxic
same,AUC(0-inf),[18],676 ng·h/mL
same,Activity,K562/A02 [19],Active
same,Activity,K562/A02 [20],Active
same,Activity,[21],Non-Toxic
same,inhibition (INH),[22],Active
same,Activity,HEK293 [23],inactive
same,inhibition (INH),[24],Active
same,AUC(0-t),[25],651 ng·h/mL
same,Activity,[26],Non-Toxic
same,Activity,K562 [27],inactive
same,Activity,HEK293 [28],Active
same,half-life at 80 ug/ml,[29],1.02 h
same,Stability,[30],Stable
same,Vd,[31],9.41 L/kg
same,LD50,[32],> 200 mg/kg/day
same,Activity,K562/A02 [33],56%
same,Activity,K562 [34],inactive
same,Activity,HEK293 [35],Active
